We go through two molecules from patent US8653054B2, “2-(N-substituted piperazinyl) steroid derivatives” (Universite Laval, priority 2008, dated 2014).

The test system of data set [1] is normal lymphocytes from peripheral blood. The experiment in a line: Cell proliferation assay (MTS) on normal lymphocytes. The settings on record: for IC50: read-out: IC50 Lymph Norm.
Method: (§1) All of the following cell lines were maintained under a CO2 humidified atmosphere at 37° C. The culture media were changed every 3-4 days and the cells were split once a week.
(§2) For the assay, the culture medium was the same.
(§3) The cell proliferation assay was performed using 3-(4,5-dimethylthiazol-2-yl)-5-(3-carboxymethoxyphenyl)2-(4-sulfophenyl)-2H-tetrazolium (MTS) (Cell Titer 96 Aqueous, Promega, USA). MTS is converted into water-soluble colored formazan by dehydrogenase enzymes present in metabolically active cells, which allows the measurement of the number of viable cells.
(§4) The cells were incubated at 37° C. and 5% CO2. The steroid derivatives of the present disclosure were dissolved in ethanol to prepare the 1×10^−2 M stock solutions. The stock solutions and doxorubicin (DOX) (Novapharm, Toronto, Canada) were diluted at multiple concentrations with culture media, added to each well, as indicated, and incubated for 3 days. Following each treatment, 20 μl MTS was added to each well and the mix was incubated for 4 h.
Data set [2] deals with OVCAR-3 ovarian cancer cells. The experiment in a line: Cell proliferation assay (MTS) on OVCAR-3 ovarian cancer cells. Format: cell-based. The settings on record: Table 3, 3 days incubation, MTS. From the text:
For the assay, the culture medium was the same, but without estradiol.

The test system of data set [3] is human MCF-7 breast cancer xenografts. Description: Growth of human MCF-7 breast cancer xenografts in nude mice. Format: in vivo. To be noted: OVX nude mice, 60 mg/kg s.c. 3 times a week, E2-stimulated; FIG. 1. As to the method: MCF-7 breast cancer cells were obtained from the ATCC (Rockville, Md.) and were propagated in Dubelcco's Modified Eagle's Medium nutrient mixture F-12 ham (DME-F12) medium supplemented with 5% FBS, glutamine (2 mM), penicillin (100 IU/mL), streptomycin (100 μg/mL) and estradiol (1 nM). These cells were used to induce tumors in homozygous female nu/nu Brathymic mice (28-42 days old) that were obtained from Charles River (Saint-Constant, Canada). Bilateral ovariectomy was performed under isoflurane-induced anesthesia. At the time of ovariectomy, an implant of estradiol (E2) was inserted s.c. to stimulate initial tumor growth. E2 implants were prepared in 1 cm long Silastic tubing (inside diameter 0.062 inch, outside diameter 0.095 inch) containing 5 mm of 1:8 (w/w) mixture of E2 and cholesterol. One week after ovariectomy, 4.1×10^6 MCF-7 cells were inoculated s.c. in 0.1 mL of medium growth+30% Matrigel on both flanks of each ovariectomized (OVX) mouse through a 2.5 cm long 22-gauge needle. After approximately 5 weeks, the mice were randomly assigned to 2 groups according to tumor size. […] The size of tumors was measured by two perpendicular diameters and tumor area (mm^2) was calculated using the formula L/2×W/2×π. The area measured on the first day of treatment was taken as 100% (FIG. 1). […]
Background: In xenograft studies the graft and the host belong to different species.

Data set [4] relates to MDA-MB-231 (ER−) breast cancer cells. Description: Cell proliferation assay (MTS) on MDA-MB-231 (ER−) breast cancer cells. The data set is classed as cell-based. The settings on record: Table 3, 3 days incubation.
For data set [5], the system named is Shionogi mammary carcinoma cells (AR+). The experiment in a line: Cell proliferation assay (MTS) on Shionogi mammary carcinoma cells. Format: cell-based. To be noted: Table 3, 3 days incubation. As to the method:
Shionogi mammary carcinoma cells bearing androgen-sensitive (AR+) were routinely grown in Eagle's Minimal Essential Medium (MEM) (Sigma, Saint Louis, USA) supplemented with 5% (v/v) fetal bovine serum (FBS), penicillin (100 IU/ml), streptomycin sulphate (50 μg/ml), 1% (v/v) non-essential amino acids and dihydrotestosterone DHT (10^−8 M). For the assay, MEM devoid of the pH indicator phenol red was supplemented with 2% (v/v) charcoal-strippes FBS and the same concentrations of antibiotics and non-essential amino acids as above.

For a further data set, the system named is K-562 leukemia cells. Description: Cell proliferation assay (MTS) on K-562 leukemia cells. Format: cell-based. To be noted: Table 3, 3 days incubation.
For data set [6], the system named is HL-60 acute promyelocytic leukemia cells. Description: Cell proliferation assay (MTS) on HL-60 leukemia cells.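 Further: cells exposed to serially diluted compound for 3 days at 37 °C, then viable cell number read via MTS conversion to coloured formazan by metabolically active cells.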 The data set is classed as cell-based, human.
Method: as §1, §2, §3, §4
For data set [7], the system named is LNCaP prostate cancer cells. The experiment in a line: Cell proliferation assay (MTS) on LNCaP prostate cancer cells. The settings on record: Table 3, 3 days incubation. The data set is classed as cell-based.
Method: as §3, §4
For data set [8], the system named is PC-3 (AR−) prostate cancer cells. The experiment in a line: Cell proliferation assay (MTS) on PC-3 (AR−) prostate cancer cells. The data set is classed as cell-based. To be noted: Table 3, 3 days incubation.
The test system of data set [9] is MCF-7 breast cancer cells. The experiment in a line: Cell proliferation assay (MTS) on MCF-7 breast cancer cells. Format: cell-based, human. The settings on record: Table 3, 3 days incubation. How it is done:
MCF-7 breast cancer cells were maintained in Dulbecco's Modified Eagle's Medium (DMEM) containing a nutriment mixture F-12 ham (DME-F12) (Sigma, Saint Louis, USA) supplemented with 5% (v/v) fetal bovine serum (FBS), L-glutamine ([…]), penicillin (100 IU/ml), streptomycin sulphate (50 μg/ml) and estradiol (1 nM). For the assay, DME-F12 was supplemented with 5% (v/v) charcoal-strippes FBS, insulin (50 ng/ml) and the same concentrations of antibiotics as above.

Data set [10] is described as follows: Plasmatic concentration (AUC) of aminosteroids after a single subcutaneous injection in rat. The settings on record: 2.3 mg/kg.
Method: (§5) Animals: Six to seven week-old male Sprague-Dawley rats (Crl:CD®(SD)Br VAF/Plus™) weighing approximately 220 g were obtained from Charles-River, Inc (St-Constant, Qc., Canada). The animals were acclimatized to environmental conditions (temperature: 22±3° C.; humidity: 50±20%; 12-h light/12-h dark cycles, lights on at 07:15 h) for at least 5 days before starting the experiment. The animals were housed three per cage and were allowed free access to water and a certified commercial rodent food (Rodent Diet #T.2018.15, Harlan Teklad, Madison, Wis., U.S.A.) and were randomized according to their body weight.
(§6) Assay: A pharmacokinetic study was carried out following one subcutaneous (s.c.) injection of the aminosteroids at one concentration (2.3 mg/kg of body weight in 0.5 mL of vehicle fluid). The compound was first dissolved in Ethanol (EtOH) followed by the addition of propylene glycol such that a final concentration of EtOH of 8% was obtained. During this experiment, the rats were housed individually and were fasted for 8h before injection of the aminosteroid. Blood samples for determination of aminosteroid plasma concentration were collected at the jugular vein (0.4 mL by animal) at target intervals of 3, 7, 12 and 24 h (or 3 and 12 h) post-dose from six rats per time point (Tables 5, 6 and 7). After the collect at 7 h, a replacement fluid (0.9% sodium chloride injection USP) was injected in the rat. Blood samples were collected in Microvette potassium-EDTA (ethylenediamine tetra-acetic acid)-coated tubes (Sarstedt, Aktiengesellchaft & Co, Germany) and centrifuged at 3200 rpm for 10 minutes at 4° C. The plasma was collected and stored at −80° C. until analyzed by liquid chromatography/mass spectrometry/mass spectrometry (LC/MS/MS) analysis.
(§7) Aminosteroid measurement: The concentration of the aminosteroid was determined by LC/MS/MS analysis using a procedure developed at the CHUQ (CHUL)—Research Center (Québec, Qc, Canada). Briefly, for extraction from serum, 100 νL, of the serum sample was transferred to individual tubes and 600 μL of ammonium acetate (1 mM) was added. A methanolic solution (50 μL) containing a steroidal internal standard was then added to each tube. Samples were transferred on Strata-X SPE columns (Phenomenex, Torrance, Calif., USA), which have been conditioned with 2 mL of MeOH and 2 mL of water. Each column was washed with 2 mL of MeOH:water (10:90, v/v). The aminosteroid was then eluted with 5 mL of MeOH containing 5 mM ammonium acetate. The MeOH was evaporated at 45° C. under inert atmosphere and the dried residue dissolved in 100 μL of MeOH:water (85:15, v/v). […] The inhibitor was detected using an API 3000 mass spectrometer, equipped with TurbolonSpray (Applied Biosystems, Canada). ESI in positive ion mode was used.
For data set [11], the system named is WI-38 diploid fibroblasts. Description: Cell proliferation assay (MTS) on WI-38 normal fibroblasts. Format: cell-based, human. The settings on record: Table 3, normal cells, 3 days incubation.
Method: WI-38 diploid fibroblasts derived from embryonic human lung were cultured in MEM (devoid of the pH indicator phenol red) supplemented with 10% (v/v) FBS, L-glutamine (2 nM), penicillin (100 IU/ml), streptomycin sulphate (50 μg/ml), sodium pyruvate (1 mM) and non-essential amino acids (0.1 mM).
as §3, §4
Another data set in a line: in vivo. The settings on record: male, Sprague-Dawley, rat, sc, 2.3 mg/kg.

Each structure is given as a SMILES string. Like-named read-outs stand apart in the source and are kept apart here. A value given as a limit tells only on which side of the number the result lay.

Method for K-562 leukemia cells: as §1, §2, §3, §4
Method for in vivo: as §5, §6, §7

In the case of `C[C@]12C[C@H](N3CCN(C(=O)[C@@H]4CCCN4C(=O)c4cccc5ccccc45)CC3)[C@@H](O)C[C@@H]1CC[C@@H]1[C@@H]2CC[C@]2(C)[C@@H](O)CC[C@@H]12` [PC-37], the “toxicity on normal healthy lymphocytes” value in data set [1] (even at high concentrations (>10 μM)) was “little or no toxicity”. Besides, the IC50 – broadly, the point on the concentration scale where inhibition reaches its midpoint – in [1] (Table 3, normal lymphocytes, 3 days incubation, MTS) is 36000 nM; in data set [2], 1400 nM; in data set [4], above 10000 nM; in data set [5] it was 200 nM; in the data set on K-562 leukemia cells, 10600 nM; in data set [6] (Table 3, 3 days incubation, MTS, read-out: IC50 HL-60) it was 2500 nM. Besides, the IC50 in data set [6] (Table 4, HL-60 cancer cell line, read-out: IC50) is 1900 nM; in data set [6] (Table 6, HL-60 cancer cell line, read-out: IC50 (HL-60)), 1900 nM; in [7], 1500 nM; in data set [8], 6500 nM; in data set [9] it was 500 nM; in [11], above 10000 nM. Further, the “growth of human MCF-7 breast cancer xenografts” value in data set [3] is listed as “reduce the growth”. Besides, in data set [10] (Table 5, subcutaneous one time), the “AUC (7 h)” value is 337 ng·h/mL. The “AUC (24 h)” value in data set [10] (Table 5, subcutaneous one time) is 552 ng·h/mL. Further, the “AUC(12 h)” value in [10] (Table 5, subcutaneous one time) amounted to 462 ng·h/mL. For the same molecule, in [10] (Table 6, subcutaneous one time), the “AUC (0-3 h)” value worked out at 97 ng·h/mL. In addition, the “AUC (0-12 h)” value in data set [10] (Table 6, subcutaneous one time) turned out to be 429 ng·h/mL.
As to `CC(=O)c1cccc(C(=O)N[C@@H](Cc2ccccc2)C(=O)N2CCN([C@H]3C[C@@]4(C)[C@@H](CC[C@@H]5[C@@H]4CC[C@]4(C)[C@@H](O)CC[C@@H]54)C[C@@H]3O)CC2)c1` [FC-48, 3-acetyl-N-[(2S)-1-{4-[(2β,3α,5α,17β)-3,17-Dihydroxyandrostan-2-yl]piperazin-1-yl}1-oxo-3-phenylpropan-2-yl]benzamide], the IC50 in data set [1] (Lymphocyte, 72 h) was above 50000 nM; in [2] (Homo sapiens, OVCAR-3, 72 h), 1600 nM; in data set [4] (Homo sapiens, MDA-MB-231, 72 h), above 10000 nM; in data set [5] (72 h), 1300 nM; in the data set with K-562 leukemia cells (Homo sapiens, K562, 72 h) it was above 10000 nM; in data set [6] (Homo sapiens, HL-60, 72 h, Table 3, 3 days incubation, MTS, read-out: IC50 HL-60), 1800 nM. Moreover, the IC50 in data set [7] (Homo sapiens, LNCaP, 72 h) was 2200 nM; in [8] (PC3/AR, 72 h), above 10000 nM; in data set [9] (Homo sapiens, MCF7, 72 h), 1500 nM; in [11] (Homo sapiens, WI-38, 72 h), above 10000 nM. The AUC(0-t) (as a rule, the area under the concentration-time curve up to a stated or last time point) in “in vivo” (AUC (7 h)) is 290 ng·h/mL; in the data set “in vivo” (AUC (24 h)), 555 ng·h/mL; in “in vivo” (AUC(12 h)), 413 ng·h/mL.
